{"source": "patent US9585861B1", "about": "“Method for treating a cancer with a mixed ligand gold(III) complexes as anti-cancer agents” (KING FAHD UNIVERSITY OF PETROLEUM AND MINERALS, priority 2015, dated 2017)", "key": {"[1]": {"test": "Cyclic voltammetry in reference phosphate buffer", "format": "physicochemical", "conditions": "1.0 mM, phosphate buffer pH 7.4, platinum electrode, 50 mV/s, room temperature", "protocol": "The electrochemical experiments performed at room temperature using a potentiostat (SP-300, BioLogic Science Instruments) controlled by EC-Lab v10.34 software package. The electrochemical experiments were performed at room temperature. All the measurements were performed on solutions deaerated by bubbling ultra-pure nitrogen for 15 min. The values of potential here reported were measured against a saturated calomel electrode (SCE). The cyclic voltammetry of the compounds 1, 2 and 3 were measured at scan rate of 50 mV/s on a reference buffer (40 mM phosphate, 4 mM NaCl, pH 7.4) using platinum as working electrode and graphite as a counter electrode with a concentration of 1.0 mM at room temperature. Ferrocene was used as pseudo reference to calibrate the working electrode. The couple Fe^III/II formal potential of ferrocene occur at E°′=+0.44 V (vs SCE) in 0.1 M Bu4NPF6 solution in acetonitrile which is similar to the report value under the same experimental condition [Hans J, Beckmann A, Krüger H J (1999) Eur. J. Inorg. Chem. 163-172—incorporated herein by reference in its entirety]. Conversion to values vs NHE was obtained upon adding +0.24 V to the corresponding SCE values.\nThe electrochemical behavior of compounds 1, 2 and 3 was investigated in a physiological environment through cyclic voltammetry (CV). […] Gold(III) complexes 1, 2 and 3 show one irreversible reduction process in which the controlled potential coulometry involves three electrons per mole. The occurrence of Au(III)/Au(O) reduction is visually indicated by the appearance of a thin gold layer deposited on the platinum electrode surface after exhaustive electrolysis (Ew, −0.7 V)."}, "[2]": {"system": "human prostate PC3 cancer cells", "test": "MTT assay, in vitro cytotoxicity / cell growth inhibition on PC3 cells", "format": "cell-based", "conditions": "for time dependent antiproliferative effect: 10 μM, 24 h and 72 h; for IC50: 72 h exposure, MTT", "protocol": "(§1) Human gastric SGC7901 cancer and prostate PC3 cancer cell lines were provided by American Type Culture Collection (ATCC). Cells were cultured in Dulbecco's Modified Eagle Medium (DMEM) supplemented with 10% fetal calf serum (FCS), penicillin (100 kU L^−1) and streptomycin (0.1 g L^−1) at 37° C. in a 5% CO2-95% air atmosphere. MTT (3-(4,5-Dimethylthiazol-2-yl)-2,5-diphenyltetrazolium bromide, a yellow tetrazole) was purchased from Sigma Chemical Co, St. Louis, Mo., USA.\n(§2) An MTT assay was used to obtain the number of living cells in the sample. Human gastric cancer SGC7901 and prostate cancer PC3 cells were seeded on 96-well plates at a predetermined optimal cell density, i.e. ca 6000 cells/100 μL per well in 96-well plates, to ensure exponential growth in the duration of the assay. After 24 h pre-incubation, the growth medium was replaced with the experimental medium containing the appropriate drug, using one of 1,2-diaminocyclohexane(1,3-propylenediamine)gold(III) chloride compounds 1, 2 and 3 or a control using water. Six duplicate wells were set up for each sample, and cells untreated with drug served as a control. In one set of culture plates, human gastric cancer SGC7901 and human prostate PC3 cells were treated with 10 μM compounds 1, 2 and 3 as the drug and the control (water) for 24, 48 and 72 h. In other sets, the compounds 1, 2 and 3 with different concentration, i.e. 10, 20 and 30 μM, were employed to determine the growth inhibitory effect for both PC3 and SGC7901 cells separately. After incubation, 10 μL MTT (6 g/L, Sigma) was added to each well and the incubation was continued for 4 h at 37° C. After removal of the medium, MTT stabilization solution [dimethylsulfoxide (DMSO):ethanol=1:1] was added to each well, and shaken for 10 min until all crystals were dissolved. Then, the optical density was detected in a micro plate reader at 550 nm wavelength using an Enzyme-Linked Immuno-Sorbent Assay (ELISA) reader. After being treated with the 1,2-diaminocyclohexane(1,3-propylenediamine)gold(III) chloride compounds 1, 2 and 3, the cell viability was examined by MTT assay. Each assay was performed in triplicate. […] These cells were treated with various concentrations of compounds 1, 2 and 3 for 24-72 h.\n(§3) Human gastric SGC7901 cells and prostate PC3 cells were incubated with these compounds at fixed concentrations or with water as a control to assess the inhibitory effect on cell growth. […] The cell survival versus drug concentration is plotted. Cytotoxicity was evaluated in vitro with reference to the IC50 value. The half maximal inhibitory concentration (IC50) is a measure of the effectiveness of a compound to inhibit biological or biochemical functions. According to the FDA, IC50 represents the concentration of a drug/compound/complex that is required for 50% inhibition in vitro. It is evaluated from the survival curves as the concentration needed for a 50% reduction of survival. IC50 values are expressed in μM.\n(§4) The in vitro cytotoxic effect of mixed ligand gold(III) diamine complexes against androgen-resistant prostate PC3 and human gastric SGC7901 cancer cells were studied using MTT assay. […] For that reason, we used different concentrations and a 3-day exposure protocol to determine the IC50 values for all three complexes. The in vitro cytotoxicity in terms of IC50 values of cisplatin for PC3 and SGC7901 cells was included for a comparison."}, "[3]": {"system": "human gastric SGC7901 cancer cells", "test": "MTT assay, in vitro cytotoxicity / cell growth inhibition on SGC7901 cells", "format": "cell-based", "conditions": "for time dependent antiproliferative effect: 10 μM, 24 h and 72 h; for IC50: 72 h exposure, MTT", "protocol": "as §1, §2, §3, §4"}, "[4]": {"test": "NMR stability in D2O and mixed DMSO-d6/D2O", "format": "physicochemical", "conditions": "DMSO-d6/D2O (v/v 2/1), room temperature, after 7 days", "protocol": "Compounds 1, 2 and 3 were tested for their stability in water as well as mixed solvents of DMSO/water (2/1 v/v ratio) solution by ^13C and ^1H NMR. […] The hydroscopic nature of DMSO could unfortunately lead to stability issue [Ellson R, Stearns R, Mutz M, Brown C, Browning B, Harris D, Qureshi S. Shieh J, Wold D (2005) Comb. Chem. High Throughput Screen, 8:489-498—incorporated herein by reference in its entirety]. To investigate the structural stability of the compounds, NMR spectra of the compounds dissolved in D2O and mixed DMSO-d6/D2O (v/v: 2/1) solvents were obtained on immediate dissolution and latter at 24 h and after three days 72 h at room temperature in mixed DMSO-d6/D2O and at 37° C. in D2O . A minimum of 30 mg/mL of representative gold(III) compounds 1, 2 and 3 were subjected to ^1H and ^13C NMR spectra analysis followed by dissolution in D2O and DMSO-d6/D2O (v/v: 2/1, 1 mL). The duplicate samples were dissolved and immediately stored at room temperature and 37° C., respectively, and followed by determination of stability through NMR measurements for compounds 1, 2 and 3 overtime periods of 24 h and 72 h.\nThe NMR spectra of the complexes were obtained upon immediate dissolution to serve as reference spectra and later at 24 h and after 7 days at 37° C. in D2O and at room temperature in mixed DMSO-d6/D2O in order to determine their stability. […]"}, "[5]": {"conditions": "read-out: IC50 (concentration of sample required to reduce the cell growth of tumor cell line by 50%)"}, "[6]": {"conditions": "listed as complex 1, read-out: IC50 (concentration of sample required to reduce the cell growth of tumor cell line by 50%)"}, "[7]": {"conditions": "listed as complex 3, read-out: IC50 (concentration of sample required to reduce the cell growth of tumor cell line by 50%)"}}, "note": "Like-named read-outs stand apart in the source and are kept apart here."}
{"smiles": "NC1CCCCC1N.NCCCN.[Au+3].[Cl-].[Cl-].[Cl-]", "note": "(racemic) [Complex 2, trans-(±)-1,2-diaminocyclohexane(1,3-propylenediamine)gold(III) chloride]", "values": [{"measurement": "Peak potential Ep vs. NHE for reduction", "setting": "[1]", "result": 0.25, "unit": "V"}, {"measurement": "time dependent antiproliferative effect", "setting": "[2]", "result": "complex 3>complex 2>complex 1"}, {"measurement": "IC50", "setting": "[2]; [5]", "result": 10.2, "unit": "µM"}, {"measurement": "time dependent antiproliferative effect", "setting": "[3]", "result": "complex 3>complex 2>complex 1"}, {"measurement": "IC50", "setting": "[3]; [5]", "result": 10.9, "unit": "µM"}]}
{"smiles": "N.N.[Cl][Pt][Cl]", "note": "[Cisplatin, reference compound]", "values": [{"measurement": "IC50", "setting": "[2]; [5]", "result": 1.1, "unit": "µM"}, {"measurement": "IC50", "setting": "[3]; [5]", "result": 7.3, "unit": "µM"}]}
{"smiles": "NC1CCCCC1N.NCCCN.[Au+3].[Cl-].[Cl-].[Cl-]", "note": "(stereo not drawn) [Complex 1, cis-1,2-diaminocyclohexane(1,3-propylenediamine)gold(III) chloride]", "values": [{"measurement": "Peak potential Ep vs. NHE for reduction", "setting": "[1]; listed as 1", "result": 0.34, "unit": "V"}, {"measurement": "concentration dependent cell growth inhibition", "setting": "[2]; 10 μM and 20 μM, 24 h", "result": "much better cell inhibition against PC3 cancer cell than complexes 3 and 2"}, {"measurement": "time dependent antiproliferative effect", "setting": "[2]; listed as complex 1", "result": "complex 3>complex 2>complex 1"}, {"measurement": "IC50", "setting": "[2]; [6]", "result": 9.5, "unit": "µM"}, {"measurement": "time dependent antiproliferative effect", "setting": "[3]; listed as complex 1", "result": "complex 3>complex 2>complex 1"}, {"measurement": "IC50", "setting": "[3]; [6]", "result": 10.8, "unit": "µM"}]}
{"smiles": "NC1CCCCC1N.NCCCN.[Au+3].[Cl-].[Cl-].[Cl-]", "note": "[Complex 3, (S,S)-(+)-1,2-diaminocyclohexane(1,3-propylenediamine)gold(III) chloride]", "values": [{"measurement": "dissociation of 1,3-propylenediamine", "setting": "[4]", "result": "approximately 50%"}, {"measurement": "Peak potential Ep vs. NHE for reduction", "setting": "[1]; listed as 3", "result": 0.24, "unit": "V"}, {"measurement": "time dependent antiproliferative effect", "setting": "[2]", "result": "better cell inhibition against both PC3 and SGC7901 cell lines than complexes 1 and 2"}, {"measurement": "time dependent antiproliferative effect", "setting": "[2]; listed as complex 3", "result": "complex 3>complex 2>complex 1"}, {"measurement": "IC50", "setting": "[2]; [7]", "result": 9.1, "unit": "µM"}, {"measurement": "time dependent antiproliferative effect", "setting": "[3]", "result": "better cell inhibition against both PC3 and SGC7901 cell lines than complexes 1 and 2"}, {"measurement": "time dependent antiproliferative effect", "setting": "[3]; listed as complex 3", "result": "complex 3>complex 2>complex 1"}, {"measurement": "IC50", "setting": "[3]; [7]", "result": 10.1, "unit": "µM"}]}
